Assay results from patent publication US9278902B2, “Crystal form of prostaglandin analogue, and preparation method and use thereof” (Shanghai Techwell Biopharmaceutical Co., Ltd., priority 2012, dated 2016).
Values belong to the compound of their own block, whether it stands above or below them.

Assays:
[1] = Stability test at 40° C., HPLC purity; type: physicochemical
Description: As used herein, “HPLC purity” refers to the percentage of the peak area of compound I obtained by area normalization method in the sum of all the peak area in HPLC detection applied to compound I, according to the obtained chromatogram.
(§1) Column: 4.6×250 mm 5 μm C18 column; flow rate: 2 ml/min; injection volume: 10 μl; column temperature: 35° C.; detection wavelength: 217 nm; mobile phase: acetonitrile/water/trifluoroacetic acid; Elution condition: water (60%): acetonitrile (40%): trifluoroacetic acid (0.1%); detection limit: 10 ng.
The purity mentioned in the following Examples is HPLC purity.
(§2) Compound I from example 2, example 3 and example 4 were obtained, and subjected to stability test at 40° C., respectively. […] Therefore, crystalline form B of compound I prepared by the method of the present invention has unique stability.

[2] = cited from earlier work
[3] = Storage stability of crystalline form B by HPLC (0° C., 20° C., 40° C.); type: physicochemical
Description: as §1, §2

Purity at 0 day (40° C.) ([1]; stability test at 40° C., 0 day (start)): 99.90%
Purity at 10 day (40° C.) ([1]; stored at 40° C., 10 day): 99.91%
Purity at 30 day (40° C.) ([1]; stored at 40° C., 30 day): 99.89%
Purity at 90 day (40° C.) ([1]; stored at 40° C., 90 day): 99.88%
SMILES: CCCCC[C@H](O)CC[C@@H]1[C@H]2Cc3cccc(OCC(=O)O)c3C[C@H]2C[C@H]1O [Example 4]

SMILES: CCCCC[C@H](O)CC[C@@H]1[C@H]2Cc3cccc(OCC(=O)O)c3C[C@H]2C[C@H]1O [Treprostinil]
Stability under physiological conditions [2]: stable

Degradation on storage (HPLC) ([3]; stored at 0° C. for 12 months): did not degrade at all
Degradation on storage (HPLC) ([3]; stored at 20° C. for 6 months): did not degrade at all
Degradation on storage (HPLC) ([3]; stored at 40° C. for 2 months): did not degrade at all
SMILES: CCCCC[C@H](O)CC[C@@H]1[C@H]2Cc3cccc(OCC(=O)O)c3C[C@H]2C[C@H]1O [crystalline form B of compound I]
